# Results as given in patent US20250236596A1, “HYDROXYLAMINE-BASED EGFR INHIBITORS FOR TREATMENT OF CANCER WITH BRAIN METASTASES” (University of Georgia Research Foundation, Inc., priority 2022, published 2025).
# What was measured:
# Caco-2 cells = assay: Caco-2 cell permeability assay; type: in vitro ADME; conditions: result in words
# Description: Compounds were evaluated at Pharmaron Inc. for their ability to permeate Caco-2 cells and MDCKII-MDR1 cells. A 96-well HTS Transwell plate (Corning) was used for the Caco-2 and MDCKII-MDR1 cell seeding. Caco-2 cells were seeded at a density of 6.86×10^5 cells/mL and cultivated for 14-18 days prior to assays. MDCKII-MDR1 cells were seeded at a density of 1.56×10^6 cells/mL and cultivated for 4-8 days prior to assays. To determine the rate of drug transport in both the absorptive (apical to basolateral (A-B)) and secretory (basolateral to apical (B-A)) directions, compounds (5 μM in DMSO for Caco-2 cells, and 1 μM in DMSO for MDCKII-MDR1 cells) were added to the donor wells. Plates were incubated at 37° C. for 2 h and samples (50 μL) were taken at the beginning and end of the incubation in both the donor and acceptor wells with the assay run in duplicate (n=2). Samples were analyzed by LC-MS/MS. The apparent permeability coefficient (Papp) in units (cm/s×10^−6) was calculated using the following equation.
# where, VA represents the volume (mL) in the acceptor well. Area is the surface of the membrane (0.143 cm^2 for Transwell-96 well plate) and time is the total transport time in sec.
# The efflux ratio was determined using the following equation: Efflux ratio=Papp (B-A)/Papp(A-B)
# Where, Papp (B-A) indicates the apparent permeability in the basolateral to apical direction, and Papp (A-B) indicates the apparent permeability in the apical to basolateral direction.
# [1] = Metabolic stability in liver microsomes; type: in vitro ADME; conditions: human and rat / multiple species; result in words
# Description: Assessment of the compounds metabolic stability in incubations containing liver microsomes and hepatocytes of human and rat using the compound depletion approach was performed by Pharmaron Inc. Compound 15 underwent additional stability evaluation in monkey and dog hepatocytes. Microsome stability was assessed in duplicate (n=2) in the presence and absence of NADPH with liver microsomes (0.5 mg/mL) from human (BD Gentest) and SD rat (BD Gentest). Compounds were incubated in liver microsomes at 1 μM and samples (30 μL) were taken at 0.5, 15, 30, 45 and 60 min time points for analysis by LC-MS/MS. Hepatocyte stability was assessed in duplicate (n=2) at a working cell density of 0.5×10^6 cells/mL with hepatocytes from human (BioIVT), SD rat (BioIVT), cynomolgous monkey (RILD) or beagle dog (BioIVT). Compounds were incubated in hepatocytes at 1 μM and samples (25 μL) were taken at 0.5, 15, 30, 60, 90 and 120 min time points for analysis by LC-MS/MS. The in vitro half-life and intrinsic clearances were determined as previously described.^19
# In vitro half-life (in vitro t1/2) was determined from the slope value in: in vitro t1/2=−(0.693/k).
# Where, k, was determined by linear regression of the natural logarithm of the remaining percentage of the parent drug vs incubation time curve.
# [2] = tested on: HCC827 NSCLC cells (EGFR del E746_A750); assay: CellTiter-Glo viability assay, HCC827; type: cell-based; conditions: Homo sapiens; HCC827, EGFR del E746_A750, 72 h; read-out: antiproliferative IC50
# Description: The A431, HCC827, SK-BR-3, ZR-75-30, AU565 and Caco-2 cell lines were obtained from ATCC. The NCI-H1975 cell line was obtained from SIBS. The NCI-H3255 cell line was obtained from CoBioer. Engineered Ba/F3 cell lines were obtained from Crown Bioscience. MCKII-MDR1 cells were obtained from the Netherlands Cancer Institute. HEK293 cells were obtained from Invitrogen. A431 cells were cultured in DMEM (Life Technologies) with 10% FBS. HCC827, NCI-H1975 and AU565 cells were cultured in RPMI1640 (Invitrogen) with 10% FBS. NCI-H3255 cells were cultured in BEGM (Lonza) with 10% FBS. Ba/F3 EGFR-del E746_A750/C797S and Ba/F3 EGFR-L858R/C797S cells were cultured in RPMI (Invitrogen) with 10% FBS. SK-BR-3 cells were cultured in McCoy's 5a (Invitrogen) with 10% FBS. ZR-75-30 cells were cultured in RPMI1640 (Invitrogen) with 20% FBS. BT474 cells were cultured in DMEM (Gibco) with 10% FBS and 10 μg/mL Insulin. Caco-2 and MCKII-MDR1 culture information is given in the permeability studies section. […]
# Viability assays using A431, HCC827, NCI-H1975, NCI-H3255, Ba/F3 EGFR-del E746_A750/C797S, Ba/F3 EGFR-L858R/C797S, AU565, SK-BR-3 and ZR-75-30 cells were performed at Crown BioScience. […] Dose-response curves were generated and used to calculate the IC50 values which were calculated on GraphPad Prism from the non-linear regression equation fitted with a sigmoidal dose response and are presented as the mean±SEM.
# hERG channel = target: T1, hERG channel (Homo sapiens, UniProt Q12809); assay: hERG channel inhibition, manual patch clamp; type: cell-based
# T1 construct: assay at Pharmaron Inc; host or cells: HEK293
# Description: The potential inhibitory effect of compounds on the hERG channel was assessed by Pharmaron Inc. using the manual patch clamp system as previously described.^20 The HEK293 cell line (Invitrogen) stably transfected with the hERG gene was employed. Compounds were tested at 5 concentrations (0.37, 1.11, 3.33, 10 and 30 μM) and run in triplicate (n=3). IC50 values were determined by plotting the % inhibition against the concentration of compounds using GraphPad Prism from the non-linear regression equation fitted with a sigmoidal dose-response curve, and the IC50 values are presented as the mean±SEM.
# HER2 = target: T2, HER2 (Homo sapiens, UniProt P04626); assay: Follow-up KdELECT binding, HER2
# T2 construct: purchased Eurofins DiscoverX (contract assay, KINOMEScan KdELECT)
# Description: In vitro kinase activity (inhibitor binding constants (Kd) and biochemical inhibition (IC50's)) were assessed by Eurofins DiscoverX (Kd determinations) and Eurofins Cerep (biochemical IC50 determinations).
# T1 sequence (Q12809 whole entry): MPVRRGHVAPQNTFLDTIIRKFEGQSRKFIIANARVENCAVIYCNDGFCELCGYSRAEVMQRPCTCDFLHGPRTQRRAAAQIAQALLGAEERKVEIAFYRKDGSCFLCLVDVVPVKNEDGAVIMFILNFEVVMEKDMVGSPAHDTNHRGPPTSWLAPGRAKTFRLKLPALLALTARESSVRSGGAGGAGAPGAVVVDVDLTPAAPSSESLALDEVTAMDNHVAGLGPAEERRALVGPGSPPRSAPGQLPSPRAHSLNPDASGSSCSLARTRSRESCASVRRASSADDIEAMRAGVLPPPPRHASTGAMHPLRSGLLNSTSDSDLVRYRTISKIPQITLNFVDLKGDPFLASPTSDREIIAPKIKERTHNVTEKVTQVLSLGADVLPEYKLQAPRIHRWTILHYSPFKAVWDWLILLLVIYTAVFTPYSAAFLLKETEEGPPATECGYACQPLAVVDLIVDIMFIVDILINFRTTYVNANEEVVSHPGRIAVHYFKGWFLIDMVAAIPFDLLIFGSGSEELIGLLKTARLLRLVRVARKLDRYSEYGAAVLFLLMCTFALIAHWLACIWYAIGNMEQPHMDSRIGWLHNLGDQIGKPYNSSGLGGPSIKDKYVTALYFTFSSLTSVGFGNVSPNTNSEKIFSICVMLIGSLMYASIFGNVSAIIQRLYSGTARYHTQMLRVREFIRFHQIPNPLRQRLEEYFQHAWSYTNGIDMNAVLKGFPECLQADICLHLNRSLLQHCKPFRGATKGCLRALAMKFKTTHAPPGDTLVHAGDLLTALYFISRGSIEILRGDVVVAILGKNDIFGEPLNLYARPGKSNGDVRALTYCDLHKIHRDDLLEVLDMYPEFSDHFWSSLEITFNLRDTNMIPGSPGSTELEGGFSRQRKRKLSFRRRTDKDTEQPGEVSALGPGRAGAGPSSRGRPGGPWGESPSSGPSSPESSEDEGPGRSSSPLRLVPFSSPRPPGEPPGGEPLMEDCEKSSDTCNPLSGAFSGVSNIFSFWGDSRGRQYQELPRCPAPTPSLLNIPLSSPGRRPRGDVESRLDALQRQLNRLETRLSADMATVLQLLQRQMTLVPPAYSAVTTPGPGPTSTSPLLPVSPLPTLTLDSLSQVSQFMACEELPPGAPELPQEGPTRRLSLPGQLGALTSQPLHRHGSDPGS
# T2 sequence (P04626 23-1255): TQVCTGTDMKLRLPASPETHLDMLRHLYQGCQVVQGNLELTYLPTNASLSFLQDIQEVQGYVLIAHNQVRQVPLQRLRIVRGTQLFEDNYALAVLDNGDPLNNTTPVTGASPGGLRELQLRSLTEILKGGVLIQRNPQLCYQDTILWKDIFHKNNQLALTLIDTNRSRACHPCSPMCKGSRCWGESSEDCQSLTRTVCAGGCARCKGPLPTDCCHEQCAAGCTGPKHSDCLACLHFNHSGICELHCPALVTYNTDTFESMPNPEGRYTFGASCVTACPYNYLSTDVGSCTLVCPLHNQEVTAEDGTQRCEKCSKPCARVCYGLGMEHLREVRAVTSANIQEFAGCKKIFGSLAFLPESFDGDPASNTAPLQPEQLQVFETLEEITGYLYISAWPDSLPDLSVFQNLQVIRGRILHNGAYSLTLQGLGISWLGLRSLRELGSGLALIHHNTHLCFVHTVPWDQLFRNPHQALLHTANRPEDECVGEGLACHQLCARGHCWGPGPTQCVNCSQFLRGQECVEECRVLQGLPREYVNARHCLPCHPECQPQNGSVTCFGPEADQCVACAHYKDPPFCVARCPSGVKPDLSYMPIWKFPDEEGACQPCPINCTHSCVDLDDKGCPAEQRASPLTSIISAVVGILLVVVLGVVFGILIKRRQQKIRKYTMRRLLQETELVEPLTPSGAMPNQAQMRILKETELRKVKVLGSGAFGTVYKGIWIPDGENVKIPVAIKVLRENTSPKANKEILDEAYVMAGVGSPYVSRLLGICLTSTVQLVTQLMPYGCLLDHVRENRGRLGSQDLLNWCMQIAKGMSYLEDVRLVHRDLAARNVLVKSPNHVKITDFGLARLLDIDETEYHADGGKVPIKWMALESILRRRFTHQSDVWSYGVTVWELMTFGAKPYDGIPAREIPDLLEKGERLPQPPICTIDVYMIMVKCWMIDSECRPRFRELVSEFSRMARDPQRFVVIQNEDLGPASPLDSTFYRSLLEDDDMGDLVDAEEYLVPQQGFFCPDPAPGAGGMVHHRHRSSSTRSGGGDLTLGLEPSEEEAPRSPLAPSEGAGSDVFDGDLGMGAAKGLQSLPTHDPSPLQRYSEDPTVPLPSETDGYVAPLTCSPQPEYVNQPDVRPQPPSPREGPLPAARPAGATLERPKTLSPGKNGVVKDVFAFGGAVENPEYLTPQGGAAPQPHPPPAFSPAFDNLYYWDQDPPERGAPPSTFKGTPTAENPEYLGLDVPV
smiles,measurement,setting,value
"COc1cc2ncnc(Nc3cccc(Cl)c3F)c2cc1OCCON1CCN(C)CC1 [Compound 15, N-(3-chloro-2-fluorophenyl)-7-methoxy-6-(2-((4-methylpiperazin-1-yl)oxy)ethoxy)quinazolin-4-amine]",efflux,Caco-2 cells,reduced efflux ratios
same,permeability,Caco-2 cells,remarkably enhanced permeability
same,stability in liver microsomes,[1],good stability
same,IC50,[2],3.1 nM
same,IC50,"hERG channel; HEK293 cells transfected with hERG, patch clamp",6480 nM
same,hERG maximal inhibition,hERG channel; at 10 μM,approximately 60%
same,Kd,HER2,21 nM
